These results are taken from PMC3352596 (Bioorganic & medicinal chemistry letters, 2011).

In data set [1] the test system is HCV. To be noted: non-obligatory chain terminators toward RNA elongation; cited from earlier work.
The conditions of data set [2]: cited from earlier work.
Data set [3] concerns Huh7 cells. Description: cytotoxicity in Huh7 cells by amplification of ribosomal RNA. In kind it is cell-based. The following applies: for inhibition at 10 µM: Homo sapiens, Huh-7, read-out: Anti-HCV activity: % inhib @ 10 μM in Huh7 cells, rRNA; for cytotoxicity / toxicity to cell lines: Huh7, PBM, CEM, Vero cell lines.
For data set [4], the system named is HCV RNA replication (subgenomic HCV replicon). Description: inhibition of HCV RNA replication in Huh7 cells, subgenomic HCV replicon system. In kind it is cell-based, Hepatitis C virus. To be noted: for inhibition at 10 µM: Hepatitis C virus, Huh-7, read-out: Anti-HCV activity: % inhib @ 10 μM in Huh7 cells, HCV, 10 μM, Huh7 cells, HCV RNA; for antiviral activity or cytotoxicity: anti-HCV, anti-HIV and cytotoxicity assays of Table 1. For orientation: Replicon systems follow genome replication, usually without infectious particles.

Data set [5] has as its target T1, adenosine deaminase (Bos taurus, UniProt P56658).
T1 sequence (P56658 1-363): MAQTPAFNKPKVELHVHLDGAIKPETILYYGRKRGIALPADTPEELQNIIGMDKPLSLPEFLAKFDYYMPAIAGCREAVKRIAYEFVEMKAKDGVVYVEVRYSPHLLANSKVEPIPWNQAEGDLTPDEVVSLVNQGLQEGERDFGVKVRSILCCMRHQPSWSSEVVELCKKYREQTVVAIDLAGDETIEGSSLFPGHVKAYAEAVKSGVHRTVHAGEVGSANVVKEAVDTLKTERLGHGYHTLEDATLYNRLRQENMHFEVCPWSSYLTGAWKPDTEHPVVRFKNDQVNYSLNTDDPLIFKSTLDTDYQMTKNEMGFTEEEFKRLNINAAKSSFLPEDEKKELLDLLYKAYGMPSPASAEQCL
Description: evaluation as substrates of adenosine deaminase. In kind it is biochemical.

For data set [6], the target named is T1, adenosine deaminase. Description: inhibition of ADA catalyzed conversion of adenosine to inosine. It is filed as biochemical. To be noted: compounds tested at 10 μM.
A short description of data set [7]: stability in pH 7.4 phosphate buffer. It is filed as physicochemical. To be noted: 23 °C, 3 days.
Data set [8] is described as follows: cytotoxicity in CEM cells. In kind it is cell-based. To be noted: human, lymphoblastoid CEM cells.

Turning to `C[C@@]1(O)[C@H](O)[C@@H](CO)O[C@H]1n1cnc2c(N)ncnc21` [Compound 1, 2′-C-Methyl adenosine], in data set [1], the “in vitro anti-HCV activity” value is “selective in vitro anti-HCV activity”. For the same molecule, in data set [2], the “in vivo bioavailability” value was “poor bioavailability”.
As for `C[C@@]1(O)[C@H](O)[C@@H](CO)O[C@H]1n1cnc2c(=O)[nH]c(N)nc21` [Compound 2, 2′-C-methyl guanosine], the “in vitro anti-HCV activity” value in data set [1] was “selective in vitro anti-HCV activity”. Moreover, the “in vivo bioavailability” value in data set [2] is “poor bioavailability”.
Regarding `Cc1nc(N)nc2c1ncn2[C@@H]1O[C@H](CO)[C@@H](O)[C@@]1(C)O` [Compound 6], the inhibition at 10 µM in data set [3] worked out at 0%.
`CCOC(=O)[C@H](C)NP(=O)(OC[C@H]1O[C@@H](n2cnc3c(C)nc(N)nc32)[C@](C)(O)[C@@H]1O)Oc1ccccc1` (stereo partly shown) [Compound 7]: the inhibition at 10 µM in data set [3] was 0%. Moreover, the “anti-HCV activity / inhibition of HCV replicon RNA replication” value in data set [4] (up to 10 μM) is “did not display any inhibition of HCV replicon RNA replication”.
In the case of `CCOP(=O)(OCC)c1nc(N)nc2c1ncn2[C@@H]1O[C@H](CO)[C@@H](O)[C@@]1(C)O` [Compound 9], the “substrate of adenosine deaminase (nitrogen to oxygen transformation)” value (from here on “substrate of adenosine deaminase”) in data set [5] is “none underwent a nitrogen to oxygen transformation”. In data set [6], the “ability to inhibit ADA catalyzed conversion of adenosine to inosine” value is reported as “Only compound 21 was found effective”. Besides, the figures for the inhibition at 10 µM in data set [3] and in data set [4] were 14.8% and 18.7%, respectively.
Take `CCOP(=O)(O)c1nc(N)nc2c1ncn2[C@@H]1O[C@H](CO)[C@@H](O)[C@@]1(C)O` [Compound 10]: in data set [5], the “substrate of adenosine deaminase” value is given as “none underwent a nitrogen to oxygen transformation”. For the same molecule, in data set [6], the “ability to inhibit ADA catalyzed conversion of adenosine to inosine” value is listed as “Only compound 21 was found effective”. The inhibition at 10 µM in data set [4] was 19.3%.
For the molecule `Cc1nc2c3ncn([C@@H]4O[C@H](CO)[C@@H](O)[C@@]4(C)O)c3nc(N)n2n1` [Compound 13a], the inhibition at 10 µM in data set [3] amounted to 0%.
With `C[C@@]1(O)[C@H](O)[C@@H](CO)O[C@H]1n1cnc2c1nc(N)n1nc(-c3ccco3)nc21` [Compound 13b], the “ability to inhibit ADA catalyzed conversion of adenosine to inosine” value in data set [6] is recorded as “Only compound 21 was found effective”. Moreover, the inhibition at 10 µM in data set [3] was found to be 0%.
Take `C[C@@]1(O)[C@H](O)[C@@H](CO)O[C@H]1n1cnc2c(N)nc(Cl)nc21` [Compound 17]: in data set [4], the “antiviral activity or cytotoxicity” value is “no antiviral activity or cytotoxicity”.
For the molecule `COc1nc(Cl)nc2c1ncn2[C@@H]1O[C@H](CO)[C@@H](O)[C@@]1(C)O` [Compound 18], in data set [4], the inhibition at 10 µM was determined as 14.3% and the “antiviral activity or cytotoxicity” value is “no antiviral activity or cytotoxicity”.
With `C[C@@]1(O)[C@H](O)[C@@H](CO)O[C@H]1n1cnc2c(N)nc(NN)nc21` [Compound 19], the “stability in phosphate buffer” value in data set [7] is listed as “complete conversion of 19 to a complex mixture of products after 3 days”. Also, in data set [3], the “cytotoxicity / toxicity to cell lines” value is recorded as “no observed cytotoxicity”.
For the molecule `C[C@@]1(O)[C@H](O)[C@@H](CO)O[C@H]1n1cnc2c(N)nc(N=[N+]=[N-])nc21` [Compound 20], the inhibition at 10 µM in data set [3] is 0%. Also, the “antiviral activity or cytotoxicity” value in data set [4] is “no antiviral activity or cytotoxicity”.
`C[C@@]1(O)[C@H](O)[C@@H](CO)O[C@H]1n1cnc2c(N)nc(-n3ccnn3)nc21` [Compound 21]: the “substrate of adenosine deaminase” value in data set [5] was “none underwent a nitrogen to oxygen transformation”. Besides, in data set [6], the “ability to inhibit ADA catalyzed conversion of adenosine to inosine” value is “effective”. Besides, the inhibition at 10 µM in data set [3] was 0%. Also, the “antiviral activity or cytotoxicity” value in data set [4] is “no antiviral activity or cytotoxicity”.
For the molecule `C[C@@]1(O)[C@H](O)[C@@H](CO)O[C@H]1n1cnc2c(N)nc(-n3cc([Si](C)(C)C)nn3)nc21` [Compound 22], the inhibition at 10 µM in data set [3] came out at 0%. The “antiviral activity or cytotoxicity” value in data set [4] is on record as “no antiviral activity or cytotoxicity”.
Consider `C[C@@]1(OC(=O)c2ccccc2)[C@H](OC(=O)c2ccccc2)[C@@H](COC(=O)c2ccccc2)O[C@H]1n1cnc2c(N)nc(NO)nc21` [Compound 26], for which, in data set [8], the CC50 – broadly, the concentration at which the toxic effect on the cells reaches its halfway point – was determined as 27.4 µM. Further, in data set [3], the “cytotoxicity / toxicity to cell lines” value was “broad toxicity against most cell lines tested”.
On to `C[C@@]1(OC(=O)c2ccccc2)[C@H](OC(=O)c2ccccc2)[C@@H](COC(=O)c2ccccc2)O[C@H]1n1cnc2c(Cl)nc(NO)nc21` [Compound 27], for which, in data set [3], the inhibition at 10 µM amounted to 99.9% and the “cytotoxicity / toxicity to cell lines” value is “broad toxicity against most cell lines tested”.
Regarding `C[C@@]1(O)[C@H](O)[C@@H](CO)O[C@H]1n1cnc2c(N)n[nH]c(=O)c21` [Compound 32, 4-amino-1-(2-methyl-β-D-ribofuranosyl)-3H-imidazo[4,5-d] pyriazin-7-(6H)-one], in data set [5], the “substrate of adenosine deaminase” value is given as “none underwent a nitrogen to oxygen transformation”. In addition, in data set [6], the “ability to inhibit ADA catalyzed conversion of adenosine to inosine” value is on record as “Only compound 21 was found effective”. For the same molecule, the inhibition at 10 µM in data set [3] worked out at 0%.
As to `C[C@@]1(O)[C@H](O)[C@@H](CO)O[C@H]1n1cnc2c(=N)n(N)[nH]c(=O)c21` [Compound 33], in data set [3], the inhibition at 10 µM came out at 0%.
As to `C[C@@]1(O)[C@H](O)[C@@H](CO)O[C@H]1n1cnc2c(=O)[nH]nc(N)c21` [Compound 35, 7-amino-1-(2-methyl-δ -D-ribofuranosyl)-1H-imidazo [4,5-d] pyridazin-4-(5H)-one], the “ability to inhibit ADA catalyzed conversion of adenosine to inosine” value in data set [6] is reported as “Only compound 21 was found effective”. Besides, in data set [3], the inhibition at 10 µM stood at 0%.
